Measured values: patent publication EP3755703B1, “N-(PHENYL)-2-(PHENYL)PYRIMIDINE-4-CARBOXAMIDE DERIVATIVES AND RELATED COMPOUNDS AS HPK1 INHIBITORS FOR TREATING CANCER” (Incyte Corporation, priority 2018, dated 2019)

What follows are molecules tested against T1, HPK1 (Homo sapiens, UniProt Q92918) (assay: HPK1 Kinase Binding Assay). Conditions: LanthaScreen tracer 222, one hour incubation at 25 °C.
T1 construct: purchased SignalChem M23-11G
T1 sequence (Q92918 1-346 limits assumed): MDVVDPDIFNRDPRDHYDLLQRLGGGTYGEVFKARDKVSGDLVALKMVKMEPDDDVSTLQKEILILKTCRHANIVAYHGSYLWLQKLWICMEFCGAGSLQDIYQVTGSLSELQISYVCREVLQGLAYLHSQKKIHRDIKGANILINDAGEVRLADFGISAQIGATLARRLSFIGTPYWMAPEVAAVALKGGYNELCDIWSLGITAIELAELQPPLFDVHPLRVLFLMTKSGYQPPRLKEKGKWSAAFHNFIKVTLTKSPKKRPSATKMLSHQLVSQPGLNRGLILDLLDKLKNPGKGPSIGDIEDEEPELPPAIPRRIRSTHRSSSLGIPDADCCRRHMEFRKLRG

Ki, < 100 nM:
COc1cccc(F)c1-c1nccc(C(=O)Nc2cc(F)ccc2N2CCN[C@H](CO)C2)n1 [Example 104, (S)-N-(5-Fluoro-2-(3-(hydroxymethyl)piperazin-1-yl)phenyl)-2-(2-fluoro-6-methoxyphenyl)pyrimidine-4-carboxamide]
COCC1CN(c2cc(-c3cnccc3C#N)ccc2NC(=O)c2ccnc(-c3c(F)cccc3OC)n2)C1 [Example 105, N-(4-(4-Cyanopyridin-3-yl)-2-(3-(methoxymethyl)azetidin-1-yl)phenyl)-2-(2-fluoro-6-methoxyphenyl)pyrimidine-4-carboxamide]
COc1cccc(F)c1-c1nccc(C(=O)Nc2ccc(-c3cnccc3C#N)cc2N2CC[C@H]2CO)n1 [Example 106, (S)-N-(4-(4-Cyanopyridin-3-yl)-2-(2-(hydroxymethyl)azetidin-1-yl)phenyl)-2-(2-fluoro-6-methoxyphenyl)pyrimidine-4-carboxamide]
COc1cccc(F)c1-c1nccc(C(=O)Nc2ccc(-c3cnccc3C#N)cc2N2CC[C@@H]2CN(C)C)n1 [Example 107, (R)-N-(4-(4-Cyanopyridin-3-yl)-2-(2-((dimethylamino)methyl)azetidin-1-yl)phenyl)-2-(2-fluoro-6-methoxyphenyl)pyrimidine-4-carboxamide]
COc1cccc(F)c1-c1nccc(C(=O)Nc2ccc(-c3cnccc3C#N)cc2N2CCN(C)CC2)n1 [Example 108, N-(4-(4-Cyanopyridin-3-yl)-2-(4-methylpiperazin-1-yl)phenyl)-2-(2-fluoro-6-methoxyphenyl)pyrimidine-4-carboxamide]
COc1cccc(F)c1-c1nccc(C(=O)Nc2ccc(-c3cnccc3C#N)cc2N2CCN(CCO)CC2)n1 [Example 109, N-(4-(4-Cyanopyridin-3-yl)-2-(4-(2-hydroxyethyl)piperazin-1-yl)phenyl)-2-(2-fluoro-6-methoxyphenyl)pyrimidine-4-carboxamide]
COc1cccc(F)c1-c1nccc(C(=O)Nc2cc(F)c(C(C)C)cc2N2CCN[C@H](CO)C2)n1 [Example 110, (S)-N-(5-Fluoro-2-(3-(hydroxymethyl)piperazin-1-yl)-4-isopropylphenyl)-2-(2-fluoro-6-methoxyphenyl)pyrimidine-4-carboxamide]
